Measurements reported in patent US12414960B2, “Analogues of oleuropein and oleacein and uses thereof” (Attica Sciences Ltd., priority 2020, dated 2025).
Entries after “also recorded” stand apart in the source; their conditions may differ.

Key:
[1] = DPPH radical scavenging assay; assay type: biochemical; settings: NS = not statistically significant
Protocol: The method of assessing the antioxidant capacity through the binding of the stable DPPH. radical was performed for the first time by Brand-Williams et al. in 1995 (Brand-William, W. et al., Lebensm Wiss Technol, 1995, 28: 25-30, “Use of a free radical method to evaluate antioxidant activity”). The method used herein is a variation of the original method and is one of the most characteristic and simple methods for the initial assessment of the antioxidant activity of antioxidant molecules or extracts rich in compounds with antioxidant properties.
The assessment of antioxidant capacity is based on the interaction of the tested molecules with the stable radical of 2,2-diphenyl-1-picrylydrazyl (DPPH). The DPPH. radical can be inactivated either by the addition of an electron or by a hydrogen atom. It is a stable organic nitrogen radical that is purple in color and absorbs at 517 nm. When a substance with antioxidant activity is added to the radical solution, then 2,2-diphenyl-1-picrylydrazyl (DPPH.) is reduced by the addition of a hydrogen atom (or electron) and converted to 2,2-diphenyl-1-picrylhydrazine (DPPH) which has a yellow color, resulting in reduction to the visual absorption (FIG. 2).
The effects of GS compounds on DPPH radical was evaluated as described previously (Spanou, C et al., Anticancer Research, 2007, 27: 3403-3410). Briefly, the assay was carried out in 1 mL of methanol containing 100 μM freshly made DPPH in methanol and the tested GS compound at different concentrations. The contents were vigorously mixed, incubated at room temperature in the dark for 20 minutes and the absorbance was read at 517 nm using a Hitachi U-1500 Spectrophotometer (San Jose, USA). In each experiment, the tested extract alone in methanol was used as blank and DPPH alone in methanol was used as control. […] The radical scavenging capacity (RSC) of the tested extracts was expressed as a percentage of DPPH elimination calculated according to the following equation: % RSC=[(absorbance of control−absorbance of GS compound)/absorbance of control]×100.

[2] = Superoxide anion radical scavenging assay (NBT reduction); assay type: biochemical; settings: NS = not statistically significant
Source text: These radicals may also play an important role in the peroxidation of unsaturated fatty acids and possibly other susceptible substances.
Under aerobic conditions, superoxide anion radicals are generated nonenzymatically in a NADH-PMS system by oxidation of […] (NADH) with phenazine methosulphate (PMS) in the presence of dissolved oxygen. (See, Nimse, Satish B. et al., RSC Adv, 2015, 5: 27986, “Free radicals, natural antioxidants, and their reaction mechanisms”). The superoxide anion radical O2.^− reduces the pale yellow colored nitroblue tetrazolium cation (NBT^2+) to a blue colored formazan dye, which is measured spectrophotometrically at 560 nm. The decrease of absorbance at 560 nm with antioxidant indicates the consumption of […] in the reaction mixture (FIG. 4).
The superoxide anion radical scavenging activity of each GS compound was determined using the nitro-blue tetrazolium (NBT) reduction method (Cos, Paul et al., J Nat Prod. 1998; 61(1): 71-76). The results were calculated as the percentage of inhibition according to the following formula: I (%)=100 [1−(S−SB)/(C−CB)] Where S, SB, C, and CB are the absorbance of the sample, the blank sample, the control, and the blank control, respectively.

[3] = test system: HCT-116 colon cancer tumor; assay: HCT116 xenograft mouse model; assay type: in vivo, nu/nu mice; settings: 20 mg/kg i.p. every 5 days, until 20 days post-treatment
Protocol: The effect of GS27 on colon cancer tumor growth in mice was evaluated in a HCT116 xenograft mouse model. HCT-116 is a human colorectal cancer cell line that has a mutation in RAS proto-oncogene.
Xenograft tumors were generated by injecting HCT-116 colon cancer cells (5×10^6) into the right flank of female nu/nu mice (Charles River Laboratories). All mice developed tumors in 10 days with size of approximately 100 mm3. For each experiment, mice were randomly distributed into equal groups (4 mice per group) that were untreated, or treated by intraperitoneal injections every 5 days with 20 mg/kg GS27 or GS19 (oleocanthal). Tumor volume (average, SD) was evaluated until 20 days post-treatment.

Raw 264.7 cells = assay: Raw 264.7 macrophage cell growth (trypan blue count); assay type: cell-based, BALB/C mice; settings: 1, 10, 25, 50, 100, 200 μM, 24 h
Protocol: The effect of GS27 on the growth of Raw 264.7 cells was evaluated to examine GS27 potential toxicity effects. RAW 264.7 cells are macrophage-like Abelson leukemia virus transformed cell line derived from BALB/C mice. The cell line was obtained from ATCC.
RAW 264.7 cells were maintained at 37° C., in a 5% CO2 and 100% humidity incubator and grown in suspension, in non-adherent flasks, in RPMI 1640-Glutamax to which was added 50 U/mL of penicillin, 50 μg/mL streptomycin and 10% (v/v) fetal bovine serum (FBS). These cells were exposed to increasing doses of GS27 (1, 10, 25, 50, 100, 200 μM) for 24 h and after the exposure period, the cells were harvested with trypsin-EDTA and trypan blue was applied to the cell suspension. Non-colored and blue cells were counted while using an automated cell counter.

[4] = test system: C4-2 castration-resistant prostate cells; assay: C4-2 castration-resistant prostate cancer cell growth; assay type: cell-based; settings: 72 hours, androgen-depleted conditions
Protocol: The effect of GS27 on castration-resistant prostate cancer cells was evaluated, alone and in combination with enzalutamide (ENZ). Enzalutamide (XTANDI; Astellas Pharma), is an androgen receptor inhibitor used for treatment of patients with prostate cancer. In a further study, the effect of G27 in combination with ENZ on castration-resistant prostate cancer cells was compared to combination treatment of NDI-091143 with ENZ.
C4-2 Castration-resistant prostate cells cultured in androgen-depleted conditions were treated with 1 μM of GS27, in the presence or absence of 10 μM of enzalutamide (ENZ) for 72 hours.
C4-2 castration-resistant prostate cells cultured in androgen-depleted conditions were treated with 1 μM of GS27 or NDI-091143, in the presence of 10 μM of enzalutamide (ENZ) for 72 hours.

[5] = test system: AsPC-1 pancreatic cancer tumor; assay: AsPC-1 xenograft mouse model; assay type: in vivo, NOD/SCID mice; settings: 100 mg/kg i.p. daily for 5 days
Protocol: The effect of GS27 on pancreatic cancer tumor growth in mice was evaluated in a AsPC-1 xenograft mouse model.
Xenograft tumors were generated by injecting AsPC-1 pancreatic cancer cells (0.5×10^6) into the right flank of male NOD/SCID mice (n=5/group). All mice developed tumors in 10 days with size of approximately 100 mm3. For each experiment, mice were randomly distributed into equal groups (5 mice per group) that were untreated or treated by intraperitoneal injections daily for 5 days with 100 mg/kg GS27. Tumor volume (average, SD) and the weight of the animals were evaluated until 24 days post-treatment.

Row | Compound | DPPH Radical Scavenging Assay IC50 [1] | Superoxide Anion Radical Scavenging Assay IC50 [2] | tumor size inhibition, HCT-116 colon cancer tumor growth [3] | further results
1 | C/C=C(/C=O)[C@@H](CC=O)CC(=O)OCCc1ccc(O)c(O)c1 [GS17, (3S,4E)-4-formyl-3-(2-oxoethyl)-4-hexenoic acid 2-(3,4-dihydroxyphenyl)ethyl ester, reference compound] | 11.5 μg extract/mL |  |  | 
2 | C/C=C(/C=O)[C@@H](CC=O)CC(=O)OCCc1ccc(O)cc1 [GS19, (3S,4E)-4-formyl-3-(2-oxoethyl)-4-hexenoic acid 2-(4-hydroxyphenyl)ethyl ester, reference compound] |  |  | did not show any significant effect | 
3 | C/C=C(/C=O)[C@@H](CC=O)CC(=O)SCCc1ccccc1 [GS27, S-phenethyl (3S,4E)-4-formyl-3-(2-oxoethyl)hex-4-enethioate] |  |  | > 60% | effect on Raw 264.7 cell growth (Raw 264.7 cells): no effect; growth of C4-2 prostate cancer cells, combination with enzalutamide ([4]; 1 μM plus 10 μM enzalutamide): substantial additive effect; also recorded: more effective than NDI-091143 and enzalutamide; growth of C4-2 prostate cancer cells, compound alone ([4]; 1 μM): inhibited the growth; weight of the mice [5]: did not affect; inhibition of AsPC-1 pancreatic cancer tumor growth ([5]; until 24 days post-treatment): 34%

Now from value to compound, other results behind:

Row | DPPH Radical Scavenging Assay IC50 [1] | Superoxide Anion Radical Scavenging Assay IC50 [2] | Compound | tumor size inhibition, HCT-116 colon cancer tumor growth [3] | further results
4 | 5.9 μg extract/mL | 23.2 μg extract/mL | C/C=C1/[C@H](OC2OC(CO)C(O)C(O)C2O)OC=C(C(=O)O)[C@H]1CC(=O)OCCc1ccc(O)c(O)c1 (stereo in doubt) [GS6, (2S,4S,E)-4-(2-(3,4-dihydroxyphenethoxy)-2-oxoethyl)-3-ethylidene-2{[(2R,3S,4R,5R,6S)-3,4,5-trihydroxy-6-(hydroxymethyl)tetrahydro-2H-pyran-2-yl]oxy}-3,4dihydro-2H-pyran-5-carboxylic acid] |  | 
5 | 13.8 μg extract/mL | 40.5 μg extract/mL | C/C=C1/[C@H](O[C@@H]2O[C@H](CO)[C@@H](O)[C@H](O)[C@H]2O)OC=C(C(=O)OC)[C@H]1CC(=O)OCCc1ccc(O)c(O)c1 [GS1, oleuropein] |  | 
